What was measured:
[1] = target: T1, AKAP-Lbc/DHPH-induced RhoA activation (Homo sapiens, UniProt P61586); assay: Guanine nucleotide exchange (GEF) assay with mant-GTP (screen and secondary assays); assay type: biochemical
T1 construct: AKAP-Lbc/DHPH (aa 1923–2336 of human AKAP-Lbc; NP_006729.4, NCBI); made in house; host or cells: E. coli Rosetta (DE3)
Protocol: Fluorescence was recorded for 15 min in a 384-well plate in a microplate reader (Tecan, Safire; Durham, US) at 440 nm (360 nm excitation wavelength).
For all dispensing and washing steps an EL406 washer/dispenser combination (BioTek Instruments, Bad Friedrichshall, Germany) was used. The screen was performed in a 384-well plate format. […] Z score describes the distance of a sample signal to the mean of all other samples on the plate in units of standard deviation. […] Compound identity and purity of samples used in this secondary screen were validated by mass spectrometric analysis.
The DHPH domain of the RhoA-specific guanine nucleotide exchange factor (GEF) AKAP-Lbc and RhoA were generated as recombinant proteins. The DHPH domain-catalyzed exchange of GDP for the fluorescent mant-GTP was monitored at the emission wavelength of RhoA-bound mant-GTP at 440 nm. (B) The fluorescence signal intensity changes were determined for all samples including positive and negative controls and percent inhibitions calculated based on the controls.

viability of cells = assay: CellTiter-Glo luminescent cell viability assay (ATP); assay type: cell-based; conditions: up to 100 μM, 1 and 24 h
Protocol: (A) Full length AKAP-Lbc (AKAP13) and the indicated GEFs were transiently expressed in HEK293 cells. […] (B) Scaff10 inhibits Gα12- but not Gαq-mediated RhoA activation. The indicated Gα12 and Gαq-mutants were transiently co-expressed with AKAP-Lbc and p63RhoGEF in HEK293 cells as indicated. The cells were left untreated or incubated with Scaff10 (50 μM). The fraction of active RhoA was determined using Rhotekin pulldown assays. Shown is one representative out of three experiments. All GEF constructs were in pCMV3a and Myc-tagged (30 ng per transfection). Expression of AKAP-Lbc, LARG and PDZ-RhoGEF is shown in Fig 7 of the main manuscript. […] Lower panel: Corresponding values of fluorescence to upper panel. […] Lower panel: Corresponding values of fluorescence to upper panel. (B) F norm = normalised fluorescence (fluoresence steady state/fluorescence initial state) indicated in ‰. […] The viability of the indicated cells was determined using a CellTiter-Glo®Luminescent Cell Viability Assay (Promega, Wisconsin, USA) according to the manufacturer's instructions. The assay is based on the quantification of ATP as an indicator of metabolically active cells. […] Viability was assessed after 1 and 24 h incubation with Scaff10-8 in the indicated concentrations. An equal volume of CellTiter-Glo Reagent was added, plates were shaken and luminescence monitored over time with the plates held at 22°C. […]

T1 sequence (P61586 whole entry, the tested form may be a part): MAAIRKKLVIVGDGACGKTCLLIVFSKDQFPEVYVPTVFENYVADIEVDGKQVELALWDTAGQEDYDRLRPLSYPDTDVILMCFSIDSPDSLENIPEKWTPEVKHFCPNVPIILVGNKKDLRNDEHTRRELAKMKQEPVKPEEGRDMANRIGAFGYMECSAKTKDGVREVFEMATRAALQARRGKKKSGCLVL

SMILES | IC50 [1] | ResidualPercentActivity ([1]; Suppl. Tab. 2, screening data) | z_score ([1]; Suppl. Tab. 2, screening data) | viability of cells (ATP quantitation) (viability of cells)
COc1ccc(-c2coc3cc4oc(=O)c(C)c(C)c4cc23)cc1 [Scaff10, 3-(4-Methoxyphenyl)-5,6-dimethyl-furo[3,2-g]chromen-7-one] | 26 µM | -9.0% | -9.0 | 
COc1ccc(-c2coc3cc4oc(=O)c(CCC(=O)O)c(C)c4cc23)cc1 [Scaff10-8, 3-[3-(4-Methoxyphenyl)-5-methyl-7-oxo-furo[3,2-g]chromen-6-yl] propanoic acid] |  |  |  | did not affect the viability
